Assay: xn = mol fraction of the nth substance listed
Settings: 298.15 K, Liquid

CCCCCCCCCl [1-chlorooctane] + CN1CCCC1=O
mass density [kg/m3]
Settings	x2 = 0.0969	x2 = 0.2014	x2 = 0.3097	x2 = 0.4076	x2 = 0.5021	x2 = 0.6022	x2 = 0.7005	x2 = 0.8007	x2 = 0.9008
10000 kPa	–	–	–	920.4	933.5	948.8	965.9	–	1007.8
10400 kPa	–	–	–	–	–	–	–	–	1008
10500 kPa	885.6	896.2	908.5	920.7	933.8	949.1	966.1	985.7	–
10900 kPa	–	–	–	–	–	–	–	986	–
11000 kPa	886	896.5	908.8	921.1	934.2	949.5	966.5	–	1008.3
11400 kPa	–	–	–	–	–	–	966.7	–	–
11500 kPa	886.3	896.9	909.1	921.3	934.5	949.7	–	986.3	1008.6
11900 kPa	886.6	–	–	–	–	–	–	–	–
12000 kPa	–	897.3	909.5	921.6	934.8	950.1	967	986.5	1008.8
12500 kPa	887	897.6	909.8	922	935.1	950.4	967.3	986.8	1009.2
12900 kPa	–	–	–	–	–	950.6	–	–	–
13000 kPa	887.4	897.9	910.1	922.3	935.4	–	967.6	987.1	1009.4
13500 kPa	887.7	898.3	910.4	922.6	935.7	950.9	967.9	987.4	1009.7
13900 kPa	–	898.5	–	–	–	–	–	–	–
14000 kPa	888.1	–	910.8	922.9	936	951.2	968.2	987.7	1009.9
14400 kPa	–	898.9	–	–	–	–	–	–	–
14500 kPa	888.4	–	911.1	923.3	936.3	951.5	968.4	–	1010.1
14600 kPa	–	–	–	–	–	–	–	988	–
14900 kPa	–	–	–	–	–	–	–	–	1010.4
15000 kPa	888.7	899.2	911.4	923.5	936.6	951.8	968.8	988.2	–
15400 kPa	–	899.5	–	–	–	–	–	–	–
15500 kPa	889	–	911.7	923.9	936.9	952.1	969	988.4	1010.7
15900 kPa	–	–	–	–	937.2	–	969.3	–	–
16000 kPa	889.4	899.9	912.1	924.2	–	952.4	–	988.7	1011
16500 kPa	889.7	900.3	912.4	924.5	937.5	952.7	969.6	988.9	1011.2
17000 kPa	–	900.6	912.8	924.9	937.8	953	970	989.2	1011.5
17100 kPa	890.1	–	–	–	–	–	–	–	–
17500 kPa	890.4	900.9	913.1	925.2	938.1	953.2	970.2	989.5	1011.7
18000 kPa	890.7	901.2	913.4	925.5	938.4	953.5	970.4	989.7	1012
18500 kPa	891.1	901.5	913.7	925.7	938.7	953.8	970.8	990	1012.2
19000 kPa	891.4	901.9	914.1	926.1	939.1	954.2	971	990.5	1012.5
19400 kPa	–	902.2	–	926.4	–	–	971.4	–	–
19500 kPa	891.7	–	914.4	–	939.3	954.5	–	990.7	1012.8
20000 kPa	892.1	902.6	914.7	–	939.8	954.8	971.7	–	1013.2
20100 kPa	–	–	–	926.8	–	–	–	991	–

Source: the NIST ThermoML archive (doi:10.1021/je7003758)
